Source: patent publication US9861604B2, “Coriolus versicolor extracts, methods of isolating biologically-active compounds, and uses thereof” (priority 2012, dated 2018)

Tests used:
Type in all cases: cell-based, human
MMP-3 [1] = experiment: TNF-α induced MMP-3 mRNA level in T98G cells (TaqMan); details: 10, 25 and 50 μg/ml 18 hr, then TNF-α 10 ng/ml 3 hr, FIG. 16
Method: Glioblastoma (T98G, brain cells) cells were pretreated with different batches of ethanol extract or purified compounds of C. versicolor for 18 hr, and then treated with recombinant human TNF-α (10 ng/ml) for another 3 hr. Total RNA extraction was performed by TRIzol reagent (Invitrogen) according to the manufacturer's instructions. Total RNA was reverse transcribed by Superscript II reverse transcriptase (Invitrogen) with oligo (dT) primers. MMP-3 mRNA levels were analyzed by TaqMan Gene Expression Assays (Applied Biosystems).
Briefly, glioblastoma (T98G; brain cells) cells were pretreated with MPUB-EtOH at different concentrations (1, 10 and 50 ug/ml) for 18 hrs, and then treated with recombinant human TNFα (10 ng/ml) for 3 hrs. MMP-3 mRNA levels were analyzed by TaqMan Gene Expression Assays. […] A p value of <0.05 (*) was considered statistically significant.

[2] = test system: Glioblastoma (T98G) cells; experiment: Matrigel Invasion Chamber tumor cell invasion assay, T98G; details: 25 μg/ml 18 hr, invasion 24 hr; FIG. 22
Method: Cell invasiveness was studied using BD BioCoat™ Matrigel™ Invasion Chamber (BD Biosciences). T98G cells suspended in MEM containing 1% FBS, 1% penicillin-streptomycin and 1% sodium pyruvate were seeded overnight on top of gel in each chamber. Bicarbonate based culture medium was added into the bottom wells of the plate. After incubation, the cells were treated with ethanol extract of C. versicolor/Cove-1 for 18 hr. The chambers were then transferred to a new plate with each well containing MEM supplemented with 10% FBS. Cells were allowed to invade through the matrices at 37° C. for another 24 hr. After the invasion assay, invaded cells on the lower surface of the chamber were fixed with 100% methanol for 2 min, and stained with Crystal Violet. The number of invading cells was quantified by counting under a light microscope.
Specifically, the effect of C. versicolor on cancer cell invasiveness was studied using a Matrigel Invasion Chamber. […] The number of invading cells was quantified by counting under a light microscope.
Specifically, the effect of 9-KODE methyl ester on cell invasiveness was studied using Matrigel Invasion Chamber. Glioblastoma (T98G) cells were treated with 9-KODE methyl ester for 18 hr, and then the cells were allowed to invade through the matrices for another 24 hr. The number of invading cells was quantified by counting under a light microscope.

MMP-3 [3] = experiment: TNF-α induced MMP-3 protein expression in T98G cells (ELISA); details: 10, 25 and 50 μg/ml 18 hr, then TNF-α 10 ng/ml 24 hr, FIG. 17
Method: T98G cells were pretreated with different batches of ethanol extract of C. versicolor for 18 hr, and then treated with recombinant human TNF-α (10 ng/ml) for another 24 hr. Protein levels of MMP-3 in the cell culture supernatants were analyzed by enzyme-linked immunosorbent assays (ELISA) using commercially available assay kits (R&D Systems).

T98G cells = experiment: MTT assay on T98G cells; details: 10, 25 and 50 μg/ml, time course of 48 hr, FIG. 19
Method: T98G cells were incubated with different batches of ethanol extract or purified compounds of C. versicolor for 48 hr. After treatment, MTT (3-[4,5-dimethylthiazol-2-yl]-2,5-di-phenyltetrazolim bromide) (Sigma) was added to the medium at a final concentration of 1 mg/ml and followed by 2 hr incubation at 37° C. MTT formazan formed was then dissolved in 200 μl of isopropanol and the absorbance of the supernatant was measured at 570 nm using a 96-well microplate reader.

CCCCC/C=C/C=C/C(=O)CCCCCCCC(=O)OC [Cove-1, 9-oxo-10E,12E-octadecadienoic acid methyl ester]
TNF-α induced MMP-3 mRNA level (MMP-3 [1]): suppressed TNF-α induced MMP-3 mRNA level
T98G cell invasiveness (number of invading cells) [2]: reduced the invasiveness of T98G significantly
TNF-α induced MMP-3 protein expression (MMP-3 [3]): inhibited TNF-α induced MMP-3 protein expression
metabolic activities of the cells (MTT) (T98G cells): no significant differences in the metabolic activities
